Source: PubChem BioAssay (NCI)
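Interpolation was linear, between the two tested concentrations surrounding the appropriate level; five concentrations were tested over 48 hours in 96-well plates. Definition used: TGI = concentration required for complete inhibition of growth.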

Columns and labels:
Assay in all cases: NCI tumour cell line growth inhibition, 48 h
NCI-H226 lung = tested on: NCI-H226 lung
BT-549 breast = tested on: BT-549 breast
SR leukemia = tested on: SR leukemia
NCI-H460 lung = tested on: NCI-H460 lung
SW-620 colon = tested on: SW-620 colon
786-0 renal = tested on: 786-0 renal
HCT-15 colon = tested on: HCT-15 colon
SK-MEL-2 melanoma = tested on: SK-MEL-2 melanoma
COLO 205 colon = tested on: COLO 205 colon
KM12 colon = tested on: KM12 colon
OVCAR-8 ovarian = tested on: OVCAR-8 ovarian
HOP-92 NSCLC = tested on: HOP-92 NSCLC
EKVX NSCLC = tested on: EKVX NSCLC
SK-OV-3 ovarian = tested on: SK-OV-3 ovarian
MDA-MB-231 breast = tested on: MDA-MB-231 breast
M14 melanoma = tested on: M14 melanoma
SNB-75 CNS = tested on: SNB-75 CNS
HL-60(TB) leukemia = tested on: HL-60(TB) leukemia
MCF7 breast = tested on: MCF7 breast
SF-539 CNS = tested on: SF-539 CNS
MDA-MB-435 = tested on: MDA-MB-435
RPMI-8226 leukemia = tested on: RPMI-8226 leukemia
SK-MEL-5 melanoma = tested on: SK-MEL-5 melanoma
MOLT-4 leukemia = tested on: MOLT-4 leukemia
NCI-H23 lung = tested on: NCI-H23 lung
OVCAR-3 ovarian = tested on: OVCAR-3 ovarian
K-562 leukemia = tested on: K-562 leukemia
T-47D breast = tested on: T-47D breast
A498 renal = tested on: A498 renal
HT29 colon = tested on: HT29 colon
IGROV1 ovarian = tested on: IGROV1 ovarian
UO-31 renal = tested on: UO-31 renal
HCC-2998 colon = tested on: HCC-2998 colon
NCI-H522 lung = tested on: NCI-H522 lung
PC-3 prostate = tested on: PC-3 prostate
ACHN renal = tested on: ACHN renal
OVCAR-4 ovarian = tested on: OVCAR-4 ovarian
UACC-62 melanoma = tested on: UACC-62 melanoma
MDA-N = tested on: MDA-N
U251 CNS = tested on: U251 CNS
SF-268 CNS = tested on: SF-268 CNS
HOP-62 NSCLC = tested on: HOP-62 NSCLC
DU-145 prostate = tested on: DU-145 prostate
SN12C renal = tested on: SN12C renal
CCRF-CEM leukemia = tested on: CCRF-CEM leukemia
HS 578T breast = tested on: HS 578T breast
HCT-116 colon = tested on: HCT-116 colon
LOX IMVI melanoma = tested on: LOX IMVI melanoma
SK-MEL-28 melanoma = tested on: SK-MEL-28 melanoma
NCI/ADR-RES ovarian = tested on: NCI/ADR-RES ovarian
UACC-257 melanoma = tested on: UACC-257 melanoma
TK-10 renal = tested on: TK-10 renal
MALME-3M melanoma = tested on: MALME-3M melanoma
CAKI-1 renal = tested on: CAKI-1 renal
SF-295 CNS = tested on: SF-295 CNS
A549 NSCLC = tested on: A549 NSCLC
OVCAR-5 ovarian = tested on: OVCAR-5 ovarian
SNB-19 CNS = tested on: SNB-19 CNS
RXF 393 renal = tested on: RXF 393 renal

SMILES: CC(=O)NC1C(OCc2ccccc2)OC(CO)C(O)C1OCC(=O)N[C@@H](C)C(=O)N[C@H](CCC(=O)NCCCCNc1c2ccccc2nc2cccc([N+](=O)[O-])c12)C(N)=O (stereo partly specified)
- TGI (NCI-H226 lung): 7.49 µM
- TGI (BT-549 breast): 13.1 µM
- TGI (SR leukemia): > 100 µM
- TGI (NCI-H460 lung): 3.36 µM
- TGI (SW-620 colon): 97 µM
- TGI (786-0 renal): 10.1 µM
- TGI (HCT-15 colon): 14.7 µM
- TGI (SK-MEL-2 melanoma): 5 µM
- TGI (COLO 205 colon): 3.33 µM
- TGI (KM12 colon): 5.32 µM
- TGI (OVCAR-8 ovarian): 5.03 µM
- TGI (HOP-92 NSCLC): 4.45 µM
- TGI (EKVX NSCLC): 8.97 µM
- TGI (SK-OV-3 ovarian): > 71.8 µM
- TGI (MDA-MB-231 breast): 9.56 µM
- TGI (M14 melanoma): > 22.2 µM
- TGI (SNB-75 CNS): 4.69 µM
- TGI (HL-60(TB) leukemia): > 100 µM
- TGI (MCF7 breast): 32 µM
- TGI (SF-539 CNS): 6 µM
- TGI (MDA-MB-435): 3.96 µM
- TGI (RPMI-8226 leukemia): 8.88 µM
- TGI (SK-MEL-5 melanoma): 2.58 µM
- TGI (MOLT-4 leukemia): > 100 µM
- TGI (NCI-H23 lung): 2.54 µM
- TGI (OVCAR-3 ovarian): > 30.4 µM
- TGI (K-562 leukemia): > 100 µM
- TGI (T-47D breast): 9.51 µM
- TGI (A498 renal): 5.9 µM
- TGI (HT29 colon): 7.86 µM
- TGI (IGROV1 ovarian): 4.74 µM
- TGI (UO-31 renal): 6.62 µM
- TGI (HCC-2998 colon): 2.91 µM
- TGI (NCI-H522 lung): 0.594 µM
- TGI (PC-3 prostate): 9.44 µM
- TGI (ACHN renal): 11.3 µM
- TGI (OVCAR-4 ovarian): 2.85 µM
- TGI (UACC-62 melanoma): 3.13 µM
- TGI (MDA-N): 4.15 µM
- TGI (U251 CNS): 10.9 µM
- TGI (SF-268 CNS): 14.5 µM
- TGI (HOP-62 NSCLC): > 52.2 µM
- TGI (DU-145 prostate): 12.4 µM
- TGI (SN12C renal): 14.5 µM
- TGI (CCRF-CEM leukemia): > 100 µM
- TGI (HS 578T breast): > 31.3 µM
- TGI (HCT-116 colon): 10 µM
- TGI (LOX IMVI melanoma): 11.5 µM
- TGI (SK-MEL-28 melanoma): 23.4 µM
- TGI (NCI/ADR-RES ovarian): > 100 µM
- TGI (UACC-257 melanoma): 5.36 µM
- TGI (TK-10 renal): 16.7 µM
- TGI (MALME-3M melanoma): 3.68 µM
- TGI (CAKI-1 renal): > 23.2 µM
- TGI (SF-295 CNS): 37.3 µM
- TGI (A549 NSCLC): > 100 µM
- TGI (OVCAR-5 ovarian): > 27.5 µM
- TGI (SNB-19 CNS): 24 µM

SMILES: CCOC(=O)NC(OCc1ccccc1)(C(=O)OC)C(F)(F)F (stereo unspecified)
- TGI (BT-549 breast): > 100 µM
- TGI (SR leukemia): > 100 µM
- TGI (NCI-H460 lung): > 100 µM
- TGI (RXF 393 renal): > 100 µM
- TGI (SW-620 colon): > 100 µM
- TGI (HCT-15 colon): > 100 µM
- TGI (SK-MEL-2 melanoma): > 100 µM
- TGI (COLO 205 colon): > 100 µM
- TGI (KM12 colon): > 100 µM
- TGI (OVCAR-8 ovarian): > 100 µM
- TGI (HOP-92 NSCLC): > 100 µM
- TGI (EKVX NSCLC): > 100 µM
- TGI (SK-OV-3 ovarian): > 100 µM
- TGI (MDA-MB-231 breast): > 100 µM
- TGI (M14 melanoma): > 100 µM
- TGI (HL-60(TB) leukemia): > 100 µM
- TGI (MCF7 breast): > 100 µM
- TGI (SF-539 CNS): > 100 µM
- TGI (MDA-MB-435): > 100 µM
- TGI (RPMI-8226 leukemia): > 100 µM
- TGI (SK-MEL-5 melanoma): > 100 µM
- TGI (MOLT-4 leukemia): > 100 µM
- TGI (NCI-H23 lung): > 100 µM
- TGI (OVCAR-3 ovarian): > 100 µM
- TGI (K-562 leukemia): > 100 µM
- TGI (T-47D breast): > 100 µM
- TGI (HT29 colon): > 100 µM
- TGI (IGROV1 ovarian): > 100 µM
- TGI (UO-31 renal): > 100 µM
- TGI (HCC-2998 colon): > 100 µM
- TGI (NCI-H522 lung): > 100 µM
- TGI (PC-3 prostate): > 100 µM
- TGI (ACHN renal): > 100 µM
- TGI (OVCAR-4 ovarian): > 100 µM
- TGI (UACC-62 melanoma): > 100 µM
- TGI (MDA-N): > 100 µM
- TGI (U251 CNS): > 100 µM
- TGI (SF-268 CNS): > 100 µM
- TGI (DU-145 prostate): > 100 µM
- TGI (SN12C renal): > 100 µM
- TGI (CCRF-CEM leukemia): > 100 µM
- TGI (HS 578T breast): > 100 µM
- TGI (HCT-116 colon): > 100 µM
- TGI (LOX IMVI melanoma): > 100 µM
- TGI (SK-MEL-28 melanoma): > 100 µM
- TGI (NCI/ADR-RES ovarian): > 100 µM
- TGI (UACC-257 melanoma): > 100 µM
- TGI (TK-10 renal): > 100 µM
- TGI (CAKI-1 renal): 87.1 µM
- TGI (SF-295 CNS): > 100 µM
- TGI (A549 NSCLC): > 100 µM
- TGI (OVCAR-5 ovarian): > 100 µM
- TGI (SNB-19 CNS): > 100 µM
